Test results from PMC12881670, “Investigation into ligand selectivity and bias at the formyl peptide receptor family” (The Journal of Pharmacology and Experimental Therapeutics, 2025).
Where no end group is shown, it is not given here. [ ]: non-standard residue; d: D form. 5/6‑FAM = fluorescein

Key:
Hs_FPR2 [1] = molecular target: T1, Hs_FPR2 (Homo sapiens, UniProt P25090); test: Competition binding of fluorescent WKYMVm, flow cytometry
T1 construct: expressed in transfected cells
T1 sequence (P25090 1-351): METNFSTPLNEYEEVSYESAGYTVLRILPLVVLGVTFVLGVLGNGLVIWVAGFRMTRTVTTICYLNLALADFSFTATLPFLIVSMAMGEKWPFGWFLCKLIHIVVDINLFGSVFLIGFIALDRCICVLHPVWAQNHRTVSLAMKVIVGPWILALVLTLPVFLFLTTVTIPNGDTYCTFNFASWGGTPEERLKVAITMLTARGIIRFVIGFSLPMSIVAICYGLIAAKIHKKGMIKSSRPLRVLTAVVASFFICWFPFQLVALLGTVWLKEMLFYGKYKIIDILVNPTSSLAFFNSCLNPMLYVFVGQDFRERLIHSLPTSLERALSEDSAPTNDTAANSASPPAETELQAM
Method: (§1) Mean cell fluorescence was then measured for 5000 cells by flow cytometry using either a BD FACScalibur or BD Attune.
(§2) All data were analyzed using GraphPad Prism using the nonlinear regression log(agonist) versus response (3 parameters) function for all assays, except binding, which was analyzed using the One site-FitlogIC50 function. Bias calculations were carried out following IUPHAR guidelines as described,[27]^,[37] and data were presented as the Δ Activity ratio (Log[EmaxB/EC50B])-(Log[EmaxA/EC50A]).

Mm_Fpr1 [2] = molecular target: T2, Mm_Fpr1 (Mus musculus, UniProt P33766); test: as above
T2 construct: expressed in transfected cells
T2 sequence (P33766 1-364): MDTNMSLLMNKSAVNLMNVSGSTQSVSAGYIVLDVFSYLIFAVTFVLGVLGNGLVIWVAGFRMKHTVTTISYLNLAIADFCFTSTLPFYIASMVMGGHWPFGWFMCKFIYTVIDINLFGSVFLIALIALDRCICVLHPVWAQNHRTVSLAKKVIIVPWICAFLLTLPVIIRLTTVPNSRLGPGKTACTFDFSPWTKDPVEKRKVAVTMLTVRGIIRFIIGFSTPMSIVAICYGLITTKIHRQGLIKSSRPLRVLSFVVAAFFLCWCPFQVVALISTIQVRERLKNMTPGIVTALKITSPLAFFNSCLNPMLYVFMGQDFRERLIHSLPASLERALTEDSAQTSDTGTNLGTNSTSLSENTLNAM
Method: as §1, §2

Hs_FPR2 [3] = molecular target: T1, Hs_FPR2; test: BRET receptor-RLuc8 interaction with Venus-mGsi; format: cell-based
Method: (§3) BRET1 assays to measure FPR interaction with Venus-mGsi and Arrestin 3-yellow fluorescent protein (YFP) were performed as previously described.[31]^,[32] Briefly, all FPRs C-terminally fused to Renilla Luciferase (donor, RLuc8) were transiently transfected along with either Venus-mGsi or YFP-Arrestin 3 (acceptor) at a ratio of 1:4. 24 hours post transfection, cells were replated into white-walled, 96-well plates and cultured for a further 24–48 hours. On the day of experimentation, growth media was aspirated and replaced with 80 μl Hanks Buffered Saline Solution and equilibrated for 30 minutes. Coelenterazine h was added to each well to a final concentration of 5 μM for 5 minutes before the addition of each compound, and the plate was incubated for a further 10 minutes at 37 °C before being read on a ClarioStar Plus, with luminescence measured at 480/20 nm (donor) and 530/20 (acceptor). The BRET ratio (acceptor/donor) was determined, and the background (untreated) subtracted to give the N-BRET value.
as §2

Mm_Fpr1 [4] = molecular target: T2, Mm_Fpr1; test: BRET receptor-RLuc8 interaction with Venus-mGsi; format: cell-based
Method: as §3, §2

Mm_Fpr2 [5] = molecular target: T3, Mm_Fpr2 (Mus musculus, UniProt O88536); test: BRET receptor-RLuc8 interaction with Venus-mGsi; format: cell-based
T3 construct: expressed in transfected cells
T3 sequence (O88536 1-351): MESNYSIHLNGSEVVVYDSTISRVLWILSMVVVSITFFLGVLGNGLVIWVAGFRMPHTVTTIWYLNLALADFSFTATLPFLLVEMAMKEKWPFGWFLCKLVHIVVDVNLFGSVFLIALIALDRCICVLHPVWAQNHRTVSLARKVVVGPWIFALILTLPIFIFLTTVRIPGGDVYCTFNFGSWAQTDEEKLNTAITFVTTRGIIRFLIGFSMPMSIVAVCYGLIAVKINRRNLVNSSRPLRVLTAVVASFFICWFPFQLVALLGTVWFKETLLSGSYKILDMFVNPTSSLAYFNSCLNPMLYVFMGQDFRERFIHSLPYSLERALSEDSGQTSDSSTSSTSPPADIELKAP
Method: as §3, §2

Mm_Fpr1 [6] = molecular target: T2, Mm_Fpr1; test: BRET receptor-RLuc8 interaction with Arrestin 3-YFP; format: cell-based
Method: as §3, §2

Mm_Fpr2 [7] = molecular target: T3, Mm_Fpr2; test: as above; format: cell-based
Method: as §3, §2

Hs_FPR2 [8] = molecular target: T1, Hs_FPR2; test: Internalization of FLAG-tagged receptors by flow cytometry; format: cell-based; set-up: Emax: dose or concentration left out as unconfirmed
Method: Internalization of FPRs was measured by flow cytometry.[30] Briefly, cells were incubated with Alexa Fluor 657 conjugated M1 antiflag antibody (Sigma-Aldrich Cat# F3040, RRID:AB_439712) for 30 minutes at 37 °C to label surface receptors. Cells were then incubated with the indicated concentration of ligand before washing in PBS/0.04% EDTA to remove any remaining surface antibody. Remaining fluorescence was then measured using flow cytometry on either a BD FACScalibur or Attune, recording 5000 gated events. […] As a control, some samples were left untreated, and “strip only” was measured as a readout of constitutive endocytosis, and this value was subtracted from the data.
as §2

Mm_Fpr1 [9] = molecular target: T2, Mm_Fpr1; test: as above; format: cell-based; set-up: Emax: dose or concentration left out as unconfirmed
Method: (§4) Internalization of FPRs was measured by flow cytometry.[30] Briefly, cells were incubated with Alexa Fluor 657 conjugated M1 antiflag antibody (Sigma-Aldrich Cat# F3040, RRID:AB_439712) for 30 minutes at 37 °C to label surface receptors. Cells were then incubated with the indicated concentration of ligand before washing in PBS/0.04% EDTA to remove any remaining surface antibody. Remaining fluorescence was then measured using flow cytometry on either a BD FACScalibur or Attune, recording 5000 gated events. […] As a control, some samples were left untreated, and “strip only” was measured as a readout of constitutive endocytosis, and this value was subtracted from the data. Vehicle control (0.1% DMSO) had no effect on internalization of receptors.
as §2

Mm_Fpr2 [10] = molecular target: T3, Mm_Fpr2; test: as above; format: cell-based; set-up: Emax: dose or concentration left out as unconfirmed
Method: as §4, §2

Hs_FPR2 [11] = molecular target: T1, Hs_FPR2; test: ERK1/2 phosphorylation by Western blotting; format: cell-based
Method: (§5) ERK phosphorylation was detected by Western blotting as previously described.[30] Briefly, HEK293 cells stably expressing FLAG-tagged FPRs were plated into 12-well culture plates until 90% confluent. On the day of the experiment, culture media was replaced with serum-free Dulbecco’s modified Eagle’s medium and incubated for 2 hours before stimulation with the indicated compounds. After 7 minutes, the media was removed and stimulation terminated by the addition of 100 μl sample buffer (0.5% SDS, Tris (pH 6.8), glycerol, at >90 °C).
as §2

Mm_Fpr1 [12] = molecular target: T2, Mm_Fpr1; test: ERK1/2 phosphorylation by Western blotting; format: cell-based
Method: as §5, §2

[13] = maximum proportion of competition with 10 nM K(5/6-FAM)-WKYMVm, mean, ND = no competition observed

Kd, saturable binding (Hs_FPR2 [1]; hFPR2, initial studies (not shown))	Molecule	Max Comp (%) (Hs_FPR2 [1]; [13])	IC50 (Mm_Fpr1 [2]) [µM]	Max Comp (%) (Mm_Fpr1 [2]; [13])	Emax (Hs_FPR2 [3]) [%]	EC50 (Mm_Fpr1 [4]) [µM]	Emax (Mm_Fpr1 [4]) [%]	EC50 (Mm_Fpr2 [5]) [µM]	Emax (Mm_Fpr2 [5]) [%]	EC50 (Mm_Fpr1 [6]) [µM]	Emax (Mm_Fpr1 [6]) [%]	EC50 (Mm_Fpr2 [7]) [µM]	Emax (Mm_Fpr2 [7]) [%]	Emax (Hs_FPR2 [8]) [%]	EC50 (Mm_Fpr1 [9]) [µM]	Emax (Mm_Fpr1 [9]) [%]	Emax (Mm_Fpr2 [10]) [%]	Emax (Hs_FPR2 [11]) [%]	Emax (Mm_Fpr1 [12]) [%]	EC50 (Mm_Fpr1 [12]; log of EC50, phosphorylation of ERK1/2, HEK293 stable cells, mean, ND = no pERK signal detected) [µM]
	CSCC[C@H](NC=O)C(=O)N[C@@H](CC(C)C)C(=O)N[C@@H](Cc1ccccc1)C(=O)O [fMLF, fMet-Leu-Phe]	3.4	3.18	45.65	61.7	11.7	59.3	26.3	13.2	20.9	83.4	19.5	22.7	0.343	4.48	92.5	54.4	40.2	72.7	2.27
low nM range	K(5/6-FAM)-WKYMVm-NH2 (K(5/6‑FAM)WKYMV[dM]-NH2)																			
